The values that follow come from US7655659B2, “Biomimetic of Evodia rutaecarpa fruit extract for amelioration of inflammation” (Applied Genetics Incorporated Dermatics, priority 2004, dated 2010).

Experiment [1] deals with human microvascular endothelial cells (HMVEC). As to the kind of experiment: Nitric oxide release from endothelial cells treated with methyl nicotinate (Greiss reagents). The following applies: 24 hours; at much lower concentrations than for PGD2 and PGE2 (FIG. 5B). The class given is cell-based. Here is the method:
(§1) Normal human epidermal keratinocytes (NHEK) and human microvascular endothelial cells (HMVEC) were obtained from a commercial supplier (Cascade Biologics, Portland, Oreg., USA) and cultured according to the manufacturer's recommendations. Methyl nicotinate was made up as a IM stock solution in H2O. The stock solution was diluted to 100 mM in H2O. The 100 mM methyl nicotinate was further diluted to 125 to 1000 μM methyl nicotinate in the cell culture media and the NHEK and HMVEC cells were treated when they had grown to approximately 70% confluency with fresh media containing the methyl nicotinate. After 24 hours of incubation in the methyl nicotinate media, the cultured media was collected. Nitric oxide was measured using the Greiss reagents as described in the Calbiochem colorimetric nitric oxide assay kit (Calbiochem, San Diego, Calif.). PGs in the cell culture media were analyzed using commercially available PGD2 and PGE2 ELISA kits (R & D Systems, Minneapolis, Minn., USA). […] This is in accordance with studies on human skin showing that erythema induced by topical application of methyl nicotinate is mediated by PGD2 (Morrow et al., 1992). […] Since NO is a vasodilatory agent that induces skin erythema, methyl nicotinate can thus induce skin erythema by induction of NO as well as via induction of PGD2 and PGE2. […]

In experiment [2] the test system is normal human epidermal keratinocytes (NHEK). The experiment is described as follows: Prostaglandin secretion from cultured skin cells treated with methyl nicotinate (PGD2 and PGE2 ELISA). The class given is cell-based. The following applies: NHEK and also HMVEC, 125 to 1000 μM. As for the experimental part:
as §1

For experiment [3], the target named is T1, COX-2 (Homo sapiens, UniProt P35354).
T1 construct: purchased Cayman, Ann Arbor, Mich
T1 sequence (P35354 18-604): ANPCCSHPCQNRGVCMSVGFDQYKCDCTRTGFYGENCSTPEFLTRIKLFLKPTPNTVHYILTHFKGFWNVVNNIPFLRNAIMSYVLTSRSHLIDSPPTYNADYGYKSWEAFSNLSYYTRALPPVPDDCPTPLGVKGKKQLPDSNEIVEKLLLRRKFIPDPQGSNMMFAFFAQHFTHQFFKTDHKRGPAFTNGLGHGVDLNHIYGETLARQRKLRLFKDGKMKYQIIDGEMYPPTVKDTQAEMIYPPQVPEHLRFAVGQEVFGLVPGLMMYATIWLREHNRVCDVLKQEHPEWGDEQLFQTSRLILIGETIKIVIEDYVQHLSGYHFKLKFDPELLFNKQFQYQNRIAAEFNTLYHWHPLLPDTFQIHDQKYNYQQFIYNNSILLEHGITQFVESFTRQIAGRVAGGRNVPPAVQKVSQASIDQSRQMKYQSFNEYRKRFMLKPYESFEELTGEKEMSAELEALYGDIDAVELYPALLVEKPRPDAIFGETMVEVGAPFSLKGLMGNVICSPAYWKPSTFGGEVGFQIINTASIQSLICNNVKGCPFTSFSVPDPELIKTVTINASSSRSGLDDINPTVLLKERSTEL
As to the kind of experiment: In vitro purified COX-2 enzyme assay (Cayman COX Inhibitor Screening Assay). The class given is biochemical. The note with it: for IC50: in vitro. As for the experimental part:
It is well known that the major source of inducible prostaglandin release from cells is related to induction of cyclo-oxygenase 2 (COX-2). […] The assay was a commercially available COX Inhibitor Screening Assay (Cayman, Ann Arbor, Mich.) run according to the manufacturer's instructions.
Fractions were analyzed for COX-2 inhibitory activity using the in vitro assay employed in the previous example.

Experiment [4] concerns the target T2, COX-1 (Ovis aries, UniProt P05979).
T2 sequence (P05979 25-600): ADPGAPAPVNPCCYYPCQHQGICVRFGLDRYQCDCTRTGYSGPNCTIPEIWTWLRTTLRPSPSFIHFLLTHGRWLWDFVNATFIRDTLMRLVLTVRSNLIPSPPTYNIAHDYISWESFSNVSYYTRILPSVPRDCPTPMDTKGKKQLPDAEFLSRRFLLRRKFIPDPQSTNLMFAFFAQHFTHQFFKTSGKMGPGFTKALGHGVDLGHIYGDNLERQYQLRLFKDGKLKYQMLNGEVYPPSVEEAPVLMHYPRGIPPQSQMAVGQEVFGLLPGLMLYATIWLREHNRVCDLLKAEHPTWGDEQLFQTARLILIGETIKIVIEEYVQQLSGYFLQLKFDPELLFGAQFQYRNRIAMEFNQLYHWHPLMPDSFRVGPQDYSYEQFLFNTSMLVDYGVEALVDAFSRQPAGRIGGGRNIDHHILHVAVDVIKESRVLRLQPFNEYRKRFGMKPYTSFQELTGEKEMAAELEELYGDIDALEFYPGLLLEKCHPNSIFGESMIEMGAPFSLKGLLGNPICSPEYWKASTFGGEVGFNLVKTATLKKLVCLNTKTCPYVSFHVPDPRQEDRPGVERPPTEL
As to the kind of experiment: In vitro COX-1 enzyme assay.

Experiment [5] deals with HaCaT cells. The experiment is described as follows: Inhibition of UVB-induced PGE2 secretion from HaCaT keratinocytes (PGE2 ELISA). It is filed as cell-based. The note with it: for μg/ml to inhibit 80% of PGE2 secretion: UVB-irradiated HaCaT cells. As for the experimental part: The HaCaT keratinocyte cell line was cultured in GibcoBRL (Grand Island, N.Y.) D-MEM low glucose medium containing 10% heat inactivated fetal bovine serum, 1% penicillin/streptomycin, 1% L-glutamine, and 1% nonessential amino acids. […] The media was harvested 24 hours after UVB irradiation and analyzed for prostaglandin E2 (PGE2) content using a PGE2 ELISA kit (R & D Systems Catalogue Number DE0100).
The observation that the selectivity of the Evodia rutaecarpa extract (216, see Example 1) was greater than the selectivity of purified BHT (87, Table 3) led us to conclude that there is synergy among the components in inhibiting COX-2. Initial data is consistent with this synergy existing also in the biomimetic of the present invention. The ability of BHT to inhibit PG secretion from UVB-irradiated HaCaT cells was examined by treating cells with BHT immediately after UVB irradiation. The media was harvested 24 hours later and analyzed for PGE2 content using a PGE2 ELISA kit (R & D Systems, Minneapolis, Minn., USA). BHT inhibited UVB-induced PG secretion at 2-20 μg/ml, which is in the range of the IC50 for inhibition of COX-2 in vitro.
The preferred Evodia mixture of Table 4 was examined for its ability to inhibit UVB-induced PGE2 secretion from HaCaT cells. […] This illustrates the discovery that the Evodia rutaecarpa extract contains a compound which blocks this activity and that when the inhibitor is removed the components act synergistically to inhibit UVB-induced PGE2. The preferred Evodia mixture was also effective at inhibiting the COX-2 enzyme in vitro. […] Thus, while the Evodia mixture is useful for inhibiting UVB-induced PGE2 secretion from skin cells when used at 0.01% (v/v) (FIG. 4), for inflammatory conditions mediated exclusively by COX-2, the preferred formulation would contain at least 1% (v/v) Evodia mixture.
On the technique in general: In an ELISA, binding on a coated surface is turned into a signal by an enzyme label.

In experiment [6] the test system is human skin. As to the kind of experiment: Methyl nicotinate-induced erythema in human skin (Dermaspectrometer). The note with it: hydrogel lotion; Evodia mixture 1% (v/v) = 60.8 μg/ml actives, bisabolol 61 μg/ml. The class given is in vivo.
Description: Each application area was demarked by an adjacent label made with a permanent black ink marker. One hour prior to the methyl nicotinate challenge dose, the Evodia mixture lotion was applied liberally to treatment spots. A Carbopol® hydrogel lotion containing no Evodia mixture was used as a vehicle control. […] Immediately thereafter, 10 μL of a 0.14 mg/ml methyl nicotinate solution in water was applied to each treatment spot. Erythema was read 15, 30, 60 and 90 minutes later. […] Results for all the subjects were calculated as change of erythema readings from time zero.
The same protocol as described above was followed with five sites treated twice daily for two weeks. Three sites were treated with test articles of 0.1%, 0.3% and 1.0% (v/v) Evodia mixture in hydrogel lotion, one site was treated with a vehicle control lotion and one site was not treated with either lotion or methyl nicotinate.
A side by side comparison was made between the Evodia mixture and bisabolol, each formulated in a hydrogel lotion, with bisabolol equal to the total amount of actives in the Evodia mixture.
Where [7] appears, read: read-out: IC50 COX-2 (converted).

Like-named read-outs stand apart in the source and are kept apart here.

Turning to `COC(=O)c1cccnc1` [methyl nicotinate], in experiment [1], the “NO secretion from HMVEC” value is “induced”. Moreover, the PGD2 secretion result in experiment [2] (24 hours (FIG. 5A)) was “induced”. Also, in experiment [2] (24 hours (data not shown)), the PGE2 secretion result is “induced”.

Regarding `C[n+]1c2n(c(=O)c3ccccc31)CCc1c-2[nH]c2ccccc12` [dehydroevodiamine], the IC50 in experiment [3] (read-out: μg/ml to inhibit 50% of COX-2 activity) was > 24.8 µM.

Turning to `C[C@H]1[C@H](C)CC[C@]2(C(=O)O)CC[C@]3(C)C(=CC[C@@H]4[C@@]5(C)CC[C@H](O)C(C)(C)[C@@H]5CC[C@]43C)[C@H]12` [Ursolic Acid (URA), ursolic acid], the IC50 in experiment [3] (setting [7]) is 59.1 µM.

On to `Cc1cc(C(C)(C)C)c(O)c(C(C)(C)C)c1` [Butylated Hydroxytoluene (BHT), butylated hydroxytoluene], for which the IC50 is 5900 µM in experiment [4] and 68.1 µM in experiment [3] (setting [7]). In addition, the “concentration inhibiting UVB-induced PG secretion” value in experiment [5] (cells treated immediately after UVB, media harvested 24 hours later) lay within 2 to 20 µg/mL. For the same compound, the “Selectivity COX-1/COX-2” value in experiment [3] (ratio of IC50s) is on record as 87.

In the case of `O=c1c2ccccc2nc2n1CCc1c-2[nH]c2ccccc12` [rutaecarpine], in experiment [5], the “μg/ml to inhibit 80% of PGE2 secretion” value came out at 0.3 µg/mL.

For the compound `CC(C)=CCC[C@](C)(O)C1CC=C(C)CC1` (stereo partly drawn) [bisabolol], the “effect on methyl nicotinate mediated erythema, side by side comparison” value in experiment [6] is “ineffective”.

For evodiamine, the “μg/ml to inhibit 80% of PGE2 secretion” value in experiment [5] was found to be 0.3 µg/mL.
